Molecules are shown by their SMILES. A value given as a limit tells only on which side of the number the result lay.

Data set [1] in a line: Cytotoxicity against monkey hepatocytes. The class given is cell-based, Macaca mulatta, Hepatocyte. The conditions noted are these: rhesus monkey.
Data set [2] in a line: Clearance in Sprague-Dawley rat at 2 mg/kg, iv administered as single dose. The class given is ADME, organism-based. The following applies: in vivo.
Data set [3] is described as follows: Tmax in CD-1 mouse at 2 mg/kg, po administered as single dose. The class given is ADME, organism-based. The following applies: in vivo.
For data set [4], the target named is Cytochrome P450 3A4 (Homo sapiens, UniProt P08684). The experiment in a line: Inhibition of human CYP3A4. The class given is ADME.
The target in data set [5] is Voltage-gated inwardly rectifying potassium channel KCNH2 (Homo sapiens, UniProt Q12809). The experiment in a line: Inhibition of human ERG expressed in HEK293 cells. The class given is cell-based.
A short description of data set [6]: AUCt in Sprague-Dawley rat at 2 mg/kg, iv administered as single dose. The conditions noted are these: in vivo. The class given is ADME, organism-based.
Data set [7] in a line: Half life in Cynomolgus monkey at 2 mg/kg, po administered as single dose. The class given is ADME, organism-based, Macaca fascicularis. The conditions noted are these: in vivo.
For data set [8], the target named is T1, Cytochrome P450 2B6 (Homo sapiens, UniProt P20813).
T1 sequence (P20813 whole entry): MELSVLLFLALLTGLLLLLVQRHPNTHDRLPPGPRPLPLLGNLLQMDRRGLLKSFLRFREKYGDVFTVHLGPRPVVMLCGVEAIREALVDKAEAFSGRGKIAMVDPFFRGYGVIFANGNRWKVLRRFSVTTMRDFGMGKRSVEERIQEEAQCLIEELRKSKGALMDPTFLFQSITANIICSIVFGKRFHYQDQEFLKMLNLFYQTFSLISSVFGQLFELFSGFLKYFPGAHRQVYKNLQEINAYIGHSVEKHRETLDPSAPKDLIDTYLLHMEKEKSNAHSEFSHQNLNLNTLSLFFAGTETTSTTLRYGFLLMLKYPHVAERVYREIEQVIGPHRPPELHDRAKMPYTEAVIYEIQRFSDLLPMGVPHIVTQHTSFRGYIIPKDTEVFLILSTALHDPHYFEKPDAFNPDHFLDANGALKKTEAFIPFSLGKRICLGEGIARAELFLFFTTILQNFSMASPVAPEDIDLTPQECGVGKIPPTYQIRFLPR
Put plainly: Inhibition of human CYP2B6. The class given is ADME.

The nature of data set [9]: Cmax in CD-1 mouse at 2 mg/kg, po administered as single dose. More on the design: dose 2 mg/kg, route oral. The conditions noted are these: in vivo. The class given is ADME, organism-based.
A short description of data set [10]: Oral bioavailability in Cynomolgus monkey at 2 mg/kg administered as single dose. The class given is ADME, organism-based, Macaca fascicularis. The following applies: in vivo.
Data set [11] in a line: Volume of distribution in Cynomolgus monkey at 2 mg/kg, iv administered as single dose. The class given is ADME, organism-based, Macaca fascicularis. The following applies: in vivo.
Data set [12] is described as follows: AUC (infinity) in Sprague-Dawley rat at 10 mg/kg, po administered as single dose. The class given is ADME, organism-based. Set-up: dose 10 mg/kg, time infinity, route oral. The following applies: in vivo.
The nature of data set [13]: Tmax in Sprague-Dawley rat at 10 mg/kg, po administered as single dose. The class given is ADME, organism-based. The following applies: in vivo.
Data set [14] has as its target Cytochrome P450 2C9 (Homo sapiens, UniProt P11712). The experiment in a line: Inhibition of human CYP2C9. The class given is ADME.
Data set [15] can be described thus: Cytotoxicity against human hepatocytes. The class given is cell-based, Hepatocyte.
Data set [16] in a line: Half life in CD-1 mouse at 2 mg/kg, iv administered as single dose measured after 24 hrs. The class given is ADME, organism-based. The conditions noted are these: in vivo.
Data set [17] is described as follows: Cytotoxicity against mouse hepatocytes. The class given is cell-based, Hepatocyte.
Data set [18] in a line: Cmax in Sprague-Dawley rat plasma at 10 mg/kg, po administered as single dose measured after 24 hrs. The class given is ADME, organism-based. Set-up: dose 10 mg/kg, route oral.
Data set [19] has as its target T2, Cytochrome P450 1A2 (Homo sapiens, UniProt P05177).
T2 sequence (P05177 whole entry): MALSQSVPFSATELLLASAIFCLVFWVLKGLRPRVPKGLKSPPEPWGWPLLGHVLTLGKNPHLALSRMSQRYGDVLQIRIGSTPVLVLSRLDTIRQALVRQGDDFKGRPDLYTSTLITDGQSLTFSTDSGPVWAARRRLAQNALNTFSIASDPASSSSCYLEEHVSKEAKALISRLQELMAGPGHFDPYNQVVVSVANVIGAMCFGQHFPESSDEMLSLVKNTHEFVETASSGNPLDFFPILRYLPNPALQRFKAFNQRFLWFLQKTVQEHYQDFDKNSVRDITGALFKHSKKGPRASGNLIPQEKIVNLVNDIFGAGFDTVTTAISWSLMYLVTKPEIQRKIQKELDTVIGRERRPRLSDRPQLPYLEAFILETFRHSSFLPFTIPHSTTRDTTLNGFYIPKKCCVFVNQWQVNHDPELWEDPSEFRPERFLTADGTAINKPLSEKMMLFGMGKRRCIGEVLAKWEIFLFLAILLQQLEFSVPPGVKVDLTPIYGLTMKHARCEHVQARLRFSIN
Put plainly: Inhibition of human CYP1A2. The class given is ADME.

Chain of Cytochrome P450 2C9 (P11712 whole entry): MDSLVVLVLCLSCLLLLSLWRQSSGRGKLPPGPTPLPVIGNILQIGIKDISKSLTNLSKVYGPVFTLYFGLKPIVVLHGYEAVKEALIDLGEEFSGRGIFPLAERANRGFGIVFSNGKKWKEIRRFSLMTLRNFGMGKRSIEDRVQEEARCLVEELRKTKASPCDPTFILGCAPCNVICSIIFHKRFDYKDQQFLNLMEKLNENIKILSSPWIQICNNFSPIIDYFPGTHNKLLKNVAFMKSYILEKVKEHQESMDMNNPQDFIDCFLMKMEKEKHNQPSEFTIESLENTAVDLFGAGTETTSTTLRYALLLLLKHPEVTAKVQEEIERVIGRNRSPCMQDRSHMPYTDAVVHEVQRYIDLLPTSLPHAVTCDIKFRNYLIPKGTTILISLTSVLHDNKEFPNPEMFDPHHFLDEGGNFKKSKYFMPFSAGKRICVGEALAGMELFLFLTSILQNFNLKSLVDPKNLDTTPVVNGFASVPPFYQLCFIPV
Chain of Cytochrome P450 3A4 (P08684 whole entry): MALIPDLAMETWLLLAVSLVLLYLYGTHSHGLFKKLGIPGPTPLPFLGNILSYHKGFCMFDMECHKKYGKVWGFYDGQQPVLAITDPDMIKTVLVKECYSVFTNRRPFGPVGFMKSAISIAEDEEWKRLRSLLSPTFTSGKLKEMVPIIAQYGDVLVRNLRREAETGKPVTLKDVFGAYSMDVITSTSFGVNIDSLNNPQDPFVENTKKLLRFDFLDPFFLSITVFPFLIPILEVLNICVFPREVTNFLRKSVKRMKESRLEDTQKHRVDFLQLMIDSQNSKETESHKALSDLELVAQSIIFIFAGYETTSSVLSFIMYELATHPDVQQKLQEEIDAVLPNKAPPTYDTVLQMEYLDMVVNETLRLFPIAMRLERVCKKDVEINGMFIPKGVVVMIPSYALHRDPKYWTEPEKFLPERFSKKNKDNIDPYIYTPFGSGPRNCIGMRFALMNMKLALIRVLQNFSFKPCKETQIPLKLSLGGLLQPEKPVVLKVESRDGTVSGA
Chain of Voltage-gated inwardly rectifying potassium channel KCNH2 (Q12809 whole entry): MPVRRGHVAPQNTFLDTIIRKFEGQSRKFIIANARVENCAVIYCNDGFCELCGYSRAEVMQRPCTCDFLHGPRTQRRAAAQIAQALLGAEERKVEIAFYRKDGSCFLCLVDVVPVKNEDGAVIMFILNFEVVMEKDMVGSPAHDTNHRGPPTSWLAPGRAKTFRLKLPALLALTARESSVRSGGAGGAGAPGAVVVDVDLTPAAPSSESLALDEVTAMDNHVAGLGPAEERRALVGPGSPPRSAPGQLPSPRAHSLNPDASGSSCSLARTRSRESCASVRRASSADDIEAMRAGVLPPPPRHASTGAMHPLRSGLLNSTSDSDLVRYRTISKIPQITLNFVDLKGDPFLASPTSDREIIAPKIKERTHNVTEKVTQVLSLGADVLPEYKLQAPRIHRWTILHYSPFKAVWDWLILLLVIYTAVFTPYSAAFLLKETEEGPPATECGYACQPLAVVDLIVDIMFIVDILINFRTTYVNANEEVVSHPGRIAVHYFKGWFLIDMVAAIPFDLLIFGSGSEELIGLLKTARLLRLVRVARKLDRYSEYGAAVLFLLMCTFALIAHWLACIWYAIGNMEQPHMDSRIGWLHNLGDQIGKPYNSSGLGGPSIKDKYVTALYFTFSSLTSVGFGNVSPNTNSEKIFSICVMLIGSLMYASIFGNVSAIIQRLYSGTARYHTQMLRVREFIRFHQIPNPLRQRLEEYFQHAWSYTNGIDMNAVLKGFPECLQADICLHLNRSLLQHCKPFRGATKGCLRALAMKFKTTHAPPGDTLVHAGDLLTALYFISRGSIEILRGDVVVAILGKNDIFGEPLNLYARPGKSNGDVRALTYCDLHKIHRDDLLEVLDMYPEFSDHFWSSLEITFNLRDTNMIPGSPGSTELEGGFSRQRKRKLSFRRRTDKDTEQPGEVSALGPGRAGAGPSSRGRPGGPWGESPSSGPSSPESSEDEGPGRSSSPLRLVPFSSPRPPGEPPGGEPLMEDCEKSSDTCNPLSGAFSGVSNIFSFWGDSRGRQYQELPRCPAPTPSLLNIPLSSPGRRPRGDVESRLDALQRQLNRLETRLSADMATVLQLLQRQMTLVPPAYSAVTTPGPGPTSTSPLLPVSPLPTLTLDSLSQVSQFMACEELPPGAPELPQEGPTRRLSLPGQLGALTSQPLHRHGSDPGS

Turning to `COc1ccc2c(O[C@H]3CCN4C(=O)N(C)CCCCC=C[C@@H]5C[C@@]5(C(=O)NS(=O)(=O)C5(C)CC5)NC(=O)[C@@H]4C3)cc(-c3nc(C(F)(F)F)cs3)nc2c1C`, the CC50 in [1], in data set [15] and in data set [17] was over 10 µM each time. In addition, in data set [2], the clearance was 18.8 mL/min/kg. Besides, the values for the Tmax in data set [3] and in data set [13] were 2 h and 1 h, respectively. In addition, the IC50 in data set [4], in data set [8], in data set [14] and in [19] was at least 10 µM each time. Besides, the “inhibition (INH)” value in data set [5] is recorded as “Not Active”. This compound returned an exposure AUC(0-t) in data set [6] of 1750 ng·h/mL. Besides, the half-life in data set [7] was 7.6 h; in [16], 6.3 h. Besides, the values for the Cmax in data set [9] and in data set [18] were 174 ng/mL and 934 ng/mL, respectively. For the same compound, the bioavailability in [10] was found to be 107%. In [11], this compound gave a Vd of 3.5 L/kg. This compound showed an AUC(0-inf) in data set [12] of 3970 ng·h/mL.

The record behind these values is ChEMBL document CHEMBL3632591, “Discovery and structural diversity of the hepatitis C virus NS3/4A serine protease inhibitor series leading to clinical candidate IDX320” (Bioorg Med Chem Lett, 2015).
